Results taken from US20230201292A1, “HERBAL FORMULATION FOR THE PREVENTION AND MANAGEMENT OF TYPE-2 DIABETES MELLITUS AND ASSOCIATED MICROVASCULAR COMPLICATIONS” (priority 2021, published 2023).

Tested on: Streptozotocin (STZ) treated diabetic rats
Test: Streptozotocin (STZ) treated diabetic rats: blood glucose, hs CRP, IL-6, adiponectin
Assay type: in vivo
Details: for Blood glucose level: STZ (65 mg/kg) diabetic rats; for Adiponectin / IL-6 / hs CRP: STZ diabetic rats

Question: How did the Blood glucose level (7th Days) turn out when `C[C@H]1O[C@H](O[C@H]2[C@H](O)[C@@H](O)[C@@H](O[C@H]3[C@H](O)[C@@H](O)C(O)O[C@@H]3CO)O[C@@H]2CO)[C@H](O)[C@@H](O)[C@@H]1N[C@H]1C=C(CO)[C@@H](O)[C@H](O)[C@H]1O` (stereo partly drawn) [Acarbose] was run?
Answer: 228.33 ± 19.44 mg/day

Question: And the Blood glucose level (14th Days)?
Answer: 192.74 ± 15.18 mg/day

Question: What about the Blood glucose level (28th Days) of the same compound?
Answer: 157.51 ± 10.24 mg/day

Question: And the Adiponectin (7th Days)?
Answer: 8.87 ± 2.10 µg/mL

Question: What about the IL-6 (7th Days) of the same compound?
Answer: 2.87 ± 0.25 pg/mL

Question: What about the “hs CRP” value (7th Days) of the same compound?
Answer: 6.78 ± 1.52 mg/L

Question: And the Adiponectin (14th Days)?
Answer: 9.65 ± 1.63 µg/mL

Question: And the IL-6 (14th Days)?
Answer: 2.49 ± 0.32 pg/mL

Question: What about the “hs CRP” value (14th Days) of the same compound?
Answer: 5.43 ± 0.75 mg/L

Question: And the Adiponectin (28th Days)?
Answer: 10.23 ± 2.14 µg/mL

Question: What about the IL-6 (28th Days) of the same compound?
Answer: 2.23 ± 0.26 pg/mL

Question: What about the “hs CRP” value (28th Days) of the same compound?
Answer: 4.97 ± 0.87 mg/L
